Laboratory results reported in ChEMBL document CHEMBL1123608, “In vivo antitumor activity of 6-benzyl-1,3-benzodioxole derivatives against the P388, L1210, B16, and M5076 murine models” (1987).
Several values for one entry are separate records, joined by “and”; a condition that tells them apart may be missing. Equal entries are not always repeated. Activity calls are given as the source filed them. No cut-off for these calls is given here.

What was measured:
Mus musculus [1] = assay: The percent increase in life span on P388 cells which were inoculated intraperitoneally in CD2F1 mice at 400 mg/kg dose placed at ranking order 3; format: functional; conditions: P388, ip, route intraperitoneal
Mus musculus [2] = assay: The percent increase in life span on P388 cells which were inoculated intraperitoneally in CD2F1 mice at 200 mg/kg dose placed at ranking order 2; format: functional; conditions: P388, ip, route intraperitoneal
Mus musculus [3] = assay: The percent increase in life span on P388 cells which were inoculated intraperitoneally in CD2F1 mice at 400 mg/kg dose placed at ranking order 1; format: functional; conditions: P388, ip, route intraperitoneal
Mus musculus [4] = assay: Percent increase in life span (ILS) was measured on P388 cells which were inoculated intraperitoneally in CD2F1 mice; format: functional
Mus musculus [5] = assay: The percent increase in life span on P388 cells which were inoculated intraperitoneally in CD2F1 mice at 400 mg/kg (tested in the same control) dose placed at ranking order 4; format: functional; conditions: P388, ip, route intraperitoneal
Mus musculus [6] = assay: In vivo antitumor activity against the B16 melanoma cell sarcoma expressed as percent increase in life span; IA means inactive; format: functional, organism-based
Mus musculus [7] = assay: In vivo antitumor activity against the L1210 leukemia cell line expressed as percent increase in life span at 200 mg/kg dose; format: functional; conditions: for ILS: dose 200 mg/kg
Mus musculus [8] = assay: In vivo antitumor activity against the M5076 reticulum cell sarcoma expressed as percent increase in life span; IA means inactive; format: functional, organism-based
[9] = Ability to inhibit the dibutyryl-cAMP-induced change of an immature glioma cell to a mature, differentiated astrocyte by in vitro astrocytoma assay at 1 ug/mL dose (Experiment #2); value may range from 0 to 5; format: functional, Mus musculus
Mus musculus [10] = assay: The percent increase in life span on P388 cells which were inoculated intraperitoneally in CD2F1 mice at 200 mg/kg dose placed at ranking order 3; format: functional; conditions: P388, ip, route intraperitoneal
[11] = Ability to inhibit the dibutyryl-cAMP-induced change of an immature glioma cell to a mature, differentiated astrocyte by in vitro astrocytoma assay at 10 ug/mL dose (Experiment #1); value may range from 6 to 15; format: functional, Mus musculus
Mus musculus [12] = assay: In vivo antitumor activity against the B16 melanoma cell line expressed as percent increase in life span; IA means inactive; format: functional, organism-based
Mus musculus [13] = assay: In vivo antitumor activity against the L1210 leukemia cell line expressed as percent increase in life span; IA means inactive; format: functional, organism-based
[14] = Ability to inhibit the dibutyryl-cAMP-induced change of an immature glioma cell to a mature, differentiated astrocyte by in vitro astrocytoma assay at 1 ug/mL dose (Experiment #1); value may range from 0 to 5; format: functional, Mus musculus
[15] = Ability to inhibit the dibutyryl-cAMP-induced change of an immature glioma cell to a mature, differentiated astrocyte by in vitro astrocytoma assay at 10 ug/mL dose (Experiment #2); value may range from 0 to 5; format: functional, Mus musculus
Mus musculus [16] = assay: The percent increase in life span on P388 cells which were inoculated intraperitoneally in CD2F1 mice at 100 mg/kg dose placed at ranking order 4; format: functional; conditions: P388, ip, route intraperitoneal
Mus musculus [17] = assay: The percent increase in life span on P388 cells which were inoculated intraperitoneally in CD2F1 mice at 100 mg/kg dose placed at ranking order 2; format: functional; conditions: P388, ip, route intraperitoneal
[18] = Ability to inhibit the dibutyryl-cAMP-induced change of an immature glioma cell to a mature, differentiated astrocyte by in vitro astrocytoma assay at 100 ug/mL dose (Experiment #2); value may range from 16 to 30; format: functional, Mus musculus
[19] = Ability to inhibit the dibutyryl-cAMP-induced change of an immature glioma cell to a mature, differentiated astrocyte by in vitro astrocytoma assay at 100 ug/mL dose (Experiment #1); value may range from 16 to 30; format: functional, Mus musculus
Mus musculus [20] = assay: The percent increase in life span on P388 cells which were inoculated intraperitoneally in CD2F1 mice at 100 mg/kg dose placed at ranking order 1; format: functional; conditions: P388, ip, route intraperitoneal
[21] = Ability to inhibit the dibutyryl-cAMP-induced change of an immature glioma cell to a mature, differentiated astrocyte by in vitro astrocytoma assay at 10 ug/mL dose (Experiment #2); value may range from 91 to up; format: functional, Mus musculus
[22] = Ability to inhibit the dibutyryl-cAMP-induced change of an immature glioma cell to a mature, differentiated astrocyte by in vitro astrocytoma assay at 0.1 ug/mL dose (Experiment #1); value may range from 0 to 5; format: functional, Mus musculus
[23] = Ability to inhibit the dibutyryl-cAMP-induced change of an immature glioma cell to a mature, differentiated astrocyte by in vitro astrocytoma assay at 10 ug/mL dose (Experiment #1); value may range from 91 to up; format: functional, Mus musculus
[24] = Ability to inhibit the dibutyryl-cAMP-induced change of an immature glioma cell to a mature, differentiated astrocyte by in vitro astrocytoma assay at 0.1 ug/mL dose (Experiment #2); value may range from 0 to 5; format: functional, Mus musculus
[25] = Ability to inhibit the dibutyryl-cAMP-induced change of an immature glioma cell to a mature, differentiated astrocyte by in vitro astrocytoma assay at 1 ug/mL dose (Experiment #1); value may range from 51 to 70; format: functional, Mus musculus
[26] = Ability to inhibit the dibutyryl-cAMP-induced change of an immature glioma cell to a mature, differentiated astrocyte by in vitro astrocytoma assay at 1 ug/mL dose (Experiment #2); value may range from 51 to 70; format: functional, Mus musculus
Mus musculus [27] = assay: In vivo antitumor activity against the B16 melanoma cell line expressed as percent increase in life span at 100 mg/kg dose; format: functional
Mus musculus [28] = assay: The percent increase in life span on P388 cells which were inoculated intraperitoneally in CD2F1 mice at 200 mg/kg dose placed at ranking order 1; format: functional; conditions: P388, ip, route intraperitoneal
Mus musculus [29] = assay: In vivo antitumor activity against the B16 melanoma cell line expressed as percent increase in life span at 200 mg/kg dose; format: functional
Mus musculus [30] = assay: In vivo antitumor activity against the M5076 reticulum cell sarcoma expressed as percent increase in life span at 500 mg/kg dose; format: functional
Mus musculus [31] = assay: The percent increase in life span on P388 cells which were inoculated intraperitoneally in CD2F1 mice at 400 mg/kg dose placed at ranking order 2; format: functional; conditions: P388, ip, route intraperitoneal
Mus musculus [32] = assay: The percent increase in life span on P388 cells which were inoculated intraperitoneally in CD2F1 mice at 300 mg/kg dose placed at ranking order 4; format: functional; conditions: P388, ip, route intraperitoneal
Mus musculus [33] = assay: The percent increase in life span on P388 cells which were inoculated intraperitoneally in CD2F1 mice at 240 mg/kg dose placed at ranking order 1; format: functional; conditions: P388, ip, route intraperitoneal

COc1cc(C(C)c2cc3c(cc2OCCO)OCO3)cc(OC)c1OC (stereo unspecified)
ILS at 400 mg/kg (Mus musculus [1]): 61% | ILS at 200 mg/kg (Mus musculus [2]): 66% | ILS at 400 mg/kg (Mus musculus [3]): 80% | ILS (Mus musculus [4]): 80% | ILS at 400 mg/kg (Mus musculus [5]): 49% | ILS (Mus musculus [6]): inactive | ILS at 200 mg/kg (Mus musculus [7]; Mus musculus, L1210, dose 200 mg/kg): 43% | ILS (Mus musculus [7]): 33% | ILS (Mus musculus [8]): inactive

COc1ccc(C(C)c2cc3c(cc2OC)OCO3)cc1 (stereo unspecified)
Astrocyte reversal [9]: 5% | ILS at 200 mg/kg (Mus musculus [10]): 74% | Astrocyte reversal [11]: 15% | ILS (Mus musculus [12]): inactive | ILS (Mus musculus [4]): 78% | ILS (Mus musculus [13]): inactive | Astrocyte reversal [14]: 5% | Astrocyte reversal [15]: 5% | ILS (Mus musculus [8]): inactive | ILS at 100 mg/kg (Mus musculus [16]): 53% | ILS at 100 mg/kg (Mus musculus [17]): 76% | Astrocyte reversal [18]: 30% | Astrocyte reversal [19]: 30% | ILS at 100 mg/kg (Mus musculus [20]): 78%

COc1cc2c(c(OC)c1OC)-c1ccc(OC)c(=O)cc1[C@@H](NC(C)=O)CC2 [COLCHICINE]
Astrocyte reversal [21]: 91% | Astrocyte reversal [22]: 0% | Astrocyte reversal [23]: 91% | Astrocyte reversal [24]: 0% | Astrocyte reversal [25]: 51% | Astrocyte reversal [26]: 51%

CCOc1ccc(C(C)c2cc3c(cc2OC)OCO3)cc1 (stereo unspecified)
ILS at 100 mg/kg (Mus musculus [27]): 29% | ILS at 200 mg/kg (Mus musculus [28]): 78% | ILS at 200 mg/kg (Mus musculus [10]): 56% | ILS (Mus musculus [4]): 78% | ILS at 200 mg/kg (Mus musculus [29]): 42% | ILS (Mus musculus [7]): 50% and 24% | ILS (Mus musculus [30]): 49% and 27% | ILS at 400 mg/kg (Mus musculus [31]): 61% | ILS at 300 mg/kg (Mus musculus [32]): 31%

CCCOc1cc2c(cc1C(C)c1ccc(OCC)cc1)OCO2 (stereo unspecified)
ILS at 240 mg/kg (Mus musculus [33]): 41% | ILS (Mus musculus [4]): 41% | ILS at 100 mg/kg (Mus musculus [17]): 26%
